Literature values, collected in US20050085485A1, “Orally dispersible pharmaceutical piribedil composition” (priority 2002, published 2005).

Conditions: humans

period over which therapeutic levels are spread out (currently marketed prolonged-release form, 50 mg dose): more than 24 hours | bioavailability by the oral route (oral route in relation to the parenteral route): low
SMILES: c1cnc(N2CCN(Cc3ccc4c(c3)OCO4)CC2)nc1 [piribedil, Piribedil]
